Here are results for one compound from patent US20240010726A1, “LFA-1 SIGNALLING MEDIATOR FOR USE IN CANCER THERAPY” (Universität Basel, priority 2020, published 2024).

Assay [1] relates to luciferase-expressing EL4 target cells. Nature of the assay: Cytotoxicity assay of WT and LFA-1−/− OT1 CTLs with luciferase-expressing EL4 target cells. Format: cell-based, murine. To be noted: EL4 pulsed with altered OVA peptides (G4, H7, R7) at 10^−6 M; 4 h; E:T 3:1; 1.2 mM or 0 mM Mg^2+. As to the method: FIG. 4: Magnesium regulates LFA-1 mediated T cell activation and cytotoxicity within physiologic range • (a) Metabolic flux analysis of human EM CD8 T cells upon supra-physiologic activation with anti-CD3 and anti-CD28 Ab, and additional injection of secondary, cross-linking anti-CD3/28 Ab, in medium containing 1.2 mM Mg^2+, 0 mM Mg^2+, or medium which was reconstituted to 1.2 mM Mg^2+ immediately prior to activation (0→1.2 mM Mg^2+). Pooled results from n=6 healthy donors from 3 independent experiments. (b) CD69 expression of PHA T cell blasts upon activation with indicated concentrations of plate-bound anti-CD3 mAb in ±Mg^2+ containing medium. […] Cytotoxicity was quantified after adding luciferin to medium and measuring luminescent signal intensity. […] Cytotoxicity was quantified after adding luciferin to medium and measuring luminescent signal intensity. […]
OT-I derived CTLs were stimulated with OVA257-264 peptide ([…], Eurogentec) or the altered peptide ligands R7 ([…], Eurogentec), H7 ([…], Eurogentec) or G4 ([…], Eurogentec) at 10 μM for 4 h. […] Cytotoxicity was either evaluated with fluorogenic caspase-3 substrate (as described above) or luciferase-expressing EL4 target cells. Cytotoxicity was quantified after adding luciferin at 0.15 mg ml^−1 (PerkinElmer) to medium and measuring luminescent signal intensity by plate reader (Synergy H1, BioTek).

The subject of assay [2] is WT and LFA-1^−/− Jurkat T cells. Nature of the assay: Calcium flux assay in WT and LFA-1−/− Jurkat T cells. Format: cell-based, human. Here is the method: FIG. 3: Magnesium regulates LFA-1 mediated T cell activation and cytotoxicity as well BiTE- and CAR T-cell functionality. (a) Glycolytic switch of murine WT and LFA-1^−/− CTLs upon injection of anti-CD3/28 Ab in medium containing 1.2 mM Mg^2+ and 0 mM Mg^2+, presented as quantification of summarized data with n=4 mice. (b) Calcium flux in WT and LFA-1^−/− Jurkat T cells stimulated with anti-CD3 Ab in 1.2 mM and 0 mM Mg^2+ medium, respectively. Cells were loaded with Fluo4, and signal intensity as recorded by plate reader, was normalized to unstimulated baseline values. […] Quantified results of n=3 mice with 3 technical replicates each. […] The effector to target cell ratio was 3:1. Results are quantified of n=3 mice with 3 technical replicates each. (e) Representative CD11a (LFA-1) surface expression on human naïve and EM CD8 T cells, PHA T cell blasts and REP T cells, assessed by flow cytometry. […] The effector to target cell ratio was 1:1. Data is presented as quantified results of n=5 healthy donors (f, g, h), n=3 healthy donors with 2 technical replicates each or n=1 healthy donor with 4 technical replicates (j). […] The effector to target cell ratio was 1:1. Data is presented as quantified results of n=1 healthy donor with 4 technical replicates. […] (n) Representative histogram of CD11a expression on PHA-blasts, untransduced T cells as well anti-CD19 expressing CAR T cells. […] Pooled results of n=6 from 2 independent experiments are shown. (p) Abundance of IFNγ in cell culture supernatants corresponding to the conditions depicted in (o) at 24 hours was determined by ELISA (n=8, 3 independent experiments). (q) Tumor growth curves of mice placed on either Mg^2+-depleted diet or respective control diet and treated with either anti-PSMA CAR T cells, untransduced T cells or saline solution. Representative of n=2 independent experiments with n=6 mice per group. Jurkat T cells were loaded with Fluo4 (Invitrogen) at a final concentration of 2 μM in Mg^2+ free self-made medium for 30 min at 37° C. […] Fluorescence intensity over time was measure with a Tecan Spark M10 plate reader. […]
(Calcium assays in cells follow changes in intracellular calcium, usually with a dye or a luminescent sensor.)

Setting [3] is: anti-CD3 Ab, 0 mM vs 1.2 mM Mg^2+.

On to `[Mg+2]` [Mg^2+, Magnesium], for which, in assay [1], the “Specific target cell lysis by OT1 CTLs” value is recorded as “confirmed across a spectrum of TCR affinities”. Moreover, in assay [2] (setting [3]), the “Ca^2+ influx in LFA-1^−/− Jurkat T cells” value is on record as “independent from extracellular Mg^2+ concentrations” and the “Ca^2+ influx in WT Jurkat T cells” value is reported as “decreased Ca^2+ influx”. Besides, the “Prolonged, sustained Ca^2+ influx” value in assay [2] (extracellular Mg^2+ depletion) was “absence of prolonged, sustained Ca^2+ influx”.
